Laboratory results taken from the supplement of paper PMC13380429.

Tests used:
Settings in all cases: 72 h
HepG2 [1] = experiment: cell viability relative to DMSO; higher = less toxic
Vero E6 [2] = experiment: as above
U2OS [3] = experiment: as above
Calu-3 [4] = experiment: as above
Caco-2 [5] = experiment: as above
HepG2 [6] = experiment: relative viability EC50 (midpoint between 100% and the lowest measured viability); higher = less toxic
Vero E6 [7] = experiment: as above
U2OS [8] = experiment: as above
Calu-3 [9] = experiment: as above
Caco-2 [10] = experiment: as above
HepG2 [11] = experiment: drug sensitivity score (DSS) for viability; higher = more toxic; extreme values may be limits of the assay
Vero E6 [12] = experiment: as above
U2OS [13] = experiment: as above
Calu-3 [14] = experiment: as above
Caco-2 [15] = experiment: as above

| SMILES | cell viability (HepG2 [1]; 1 nM) | cell viability (HepG2 [1]; 10 nM) | cell viability (HepG2 [1]; 100 nM) | cell viability (HepG2 [1]; 1000 nM) | cell viability (HepG2 [1]; 10000 nM) | cell viability (Vero E6 [2]; 1 nM) | cell viability (Vero E6 [2]; 10 nM) | cell viability (Vero E6 [2]; 100 nM) | cell viability (Vero E6 [2]; 1000 nM) | cell viability (Vero E6 [2]; 10000 nM) | cell viability (U2OS [3]; 1 nM) | cell viability (U2OS [3]; 10 nM) | cell viability (U2OS [3]; 100 nM) | cell viability (U2OS [3]; 1000 nM) | cell viability (U2OS [3]; 10000 nM) | cell viability (Calu-3 [4]; 1 nM) | cell viability (Calu-3 [4]; 10 nM) | cell viability (Calu-3 [4]; 100 nM) | cell viability (Calu-3 [4]; 1000 nM) | cell viability (Calu-3 [4]; 10000 nM) | cell viability (Caco-2 [5]; 1 nM) | cell viability (Caco-2 [5]; 10 nM) | cell viability (Caco-2 [5]; 100 nM) | cell viability (Caco-2 [5]; 1000 nM) | cell viability (Caco-2 [5]; 10000 nM) | relative viability EC50 (HepG2 [6]) | relative viability EC50 (Vero E6 [7]) | relative viability EC50 (U2OS [8]) | relative viability EC50 (Calu-3 [9]) | relative viability EC50 (Caco-2 [10]) | drug sensitivity score (HepG2 [11]) | drug sensitivity score (Vero E6 [12]) | drug sensitivity score (U2OS [13]) | drug sensitivity score (Calu-3 [14]) | drug sensitivity score (Caco-2 [15]) |
| --- | --- | --- | --- | --- | --- | --- | --- | --- | --- | --- | --- | --- | --- | --- | --- | --- | --- | --- | --- | --- | --- | --- | --- | --- | --- | --- | --- | --- | --- | --- | --- | --- | --- | --- | --- |
| O[C@H]([C@H](O)[C@@H]1CO1)[C@H]1CO1 [dianhydrogalactitol] | 99.4% | 101% | 104% | 90.8% | 91.1% | 97.6% | 96.9% | 93.2% | 97.2% | 99.9% | 99.1% | 104% | 97.2% | 100% | 100% | 103% | 107% | 99.3% | 95.4% | 94.2% | 97.4% | 95.8% | 101% | 104% | 95.7% | > 10 µM | > 10 µM | > 10 µM | > 10 µM | > 10 µM | 0 | 0 | 0 | 0 | 0 |
| NC[C@@H]1CC[C@@H](N)[C@@H](O[C@H]2[C@H](O)[C@@H](O[C@H]3O[C@H](CO)[C@@H](O)[C@H](N)[C@H]3O)[C@H](N)C[C@@H]2N)O1 [dibekacin] | 96.5% | 101% | 89.1% | 102% | 94.5% | 103% | 103% | 98.1% | 101% | 101% | 104% | 97.9% | 101% | 98% | 104% | 101% | 91.9% | 114% | 101% | 95% | 96% | 94.4% | 101% | 93.5% | 106% | > 10 µM | > 10 µM | > 10 µM | > 10 µM | > 10 µM | 0 | 0 | 0 | 0 | 0 |
| CC(=O)OCC(=O)[C@@]1(OC(C)=O)[C@@H](C)C[C@H]2[C@@H]3C[C@H](F)C4=CC(=O)C=C[C@]4(C)[C@@]3(F)[C@@H](O)C[C@@]21C [diflorasone-diacetate] | 82.6% | 90.4% | 87.9% | 97.8% | 95.2% | 104% | 106% | 105% | 90.7% | 98.1% | 102% | 96.9% | 95.9% | 96.5% | 89.9% | 105% | 95.9% | 93.1% | 100% | 101% | 110% | 106% | 99% | 98.4% | 87.6% | > 10 µM | > 10 µM | > 10 µM | > 10 µM | > 10 µM | 0 | 0 | 0 | 0 | 0.2 |
| CCCCCCCCCCCC[N+](C)(C)CCOc1ccccc1 [domiphen] | 103% | 95.3% | 100% | 94% | 30% | 100% | 98.8% | 96.6% | 93% | 83.8% | 93.6% | 102% | 94.9% | 95.7% | 9.5% | 90.9% | 92.7% | 91.5% | 102% | 26.8% | 85.6% | 99.3% | 95% | 101% | 11.1% | 2.46 µM | > 10 µM | 2.8 µM | 3.31 µM | 3.22 µM | 4.8 | 0.5 | 5.6 | 3.9 | 4.9 |
| COc1ccccc1N1CCN(CC(O)COc2cc(OC)c(OC)c(OC)c2)CC1 (stereo not given) [enciprazine] | 98.3% | 99.9% | 91.4% | 94.2% | 96% | 100% | 101% | 101% | 99.1% | 99.4% | 94.9% | 98.2% | 95.1% | 96% | 94.9% | 101% | 106% | 100% | 98.1% | 105% | 104% | 97.9% | 89.3% | 93.8% | 99.8% | > 10 µM | > 10 µM | > 10 µM | > 10 µM | > 10 µM | 0 | 0 | 0 | 0 | 0 |
| CCCCCCCCCCCCCCCCCCCCCC(=O)Nc1ccn([C@@H]2O[C@H](CO)[C@@H](O)[C@@H]2O)c(=O)n1 [enocitabine] | 98% | 102% | 100% | 112% | 79.2% | 95.6% | 97.2% | 91.9% | 94% | 107% | 94.1% | 95.2% | 95.4% | 93.6% | 102% | 99.2% | 99% | 104% | 94.9% | 95.7% | 78.8% | 67.8% | 90.5% | 114% | 92.3% | > 10 µM | > 10 µM | > 10 µM | > 10 µM | > 10 µM | 0.4 | 0 | 0 | 0 | 0 |
| CCn1cnc(C(=O)NC)c1C(=O)NC [ethimizol] | 89.3% | 114% | 103% | 104% | 111% | 96.4% | 96.2% | 96.4% | 99.9% | 100% | 98.6% | 102% | 98.1% | 98.2% | 94.9% | 102% | 92.4% | 91.3% | 102% | 99.1% | 97.5% | 104% | 91.5% | 99.1% | 92.3% | > 10 µM | > 10 µM | > 10 µM | > 10 µM | > 10 µM | 0 | 0 | 0 | 0 | 0 |
| Cc1cc(C#N)cc(C)c1Oc1nc(Nc2ccc(C#N)cc2)nc(N)c1Br [etravirine] | 110% | 101% | 92.3% | 99.8% | 102% | 97.5% | 97.9% | 95.7% | 105% | 107% | 103% | 95.2% | 97.2% | 95.2% | 95.3% | 94.3% | 95.8% | 95.7% | 96.5% | 103% | 94% | 93.7% | 97.2% | 105% | 102% | > 10 µM | > 10 µM | > 10 µM | > 10 µM | > 10 µM | 0 | 0 | 0 | 0 | 0 |
| N#Cc1ccc(C2CCCc3cncn32)cc1 (stereo not given) [fadrozole] | 96.9% | 100% | 91.6% | 103% | 96.2% | 95.4% | 95.6% | 89.1% | 94.9% | 95.2% | 96.2% | 91.4% | 96.4% | 93.4% | 97.4% | 91.1% | 103% | 96.6% | 98% | 95.3% | 77.9% | 87.4% | 89.6% | 92.6% | 82.3% | > 10 µM | > 10 µM | > 10 µM | > 10 µM | > 10 µM | 0 | 0 | 0 | 0 | 0 |
| Nc1nc(=O)c2nc(CNc3ccc(C(=O)N[C@@H](CCC(=O)O)C(=O)O)cc3)cnc2[nH]1 [folic-acid] | 106% | 101% | 99.8% | 97.2% | 99.4% | 99.9% | 102% | 97% | 101% | 92.8% | 97.7% | 101% | 97% | 99.4% | 96.4% | 93.5% | 102% | 88.1% | 106% | 97.8% | 89.2% | 103% | 101% | 95.3% | 90.7% | > 10 µM | > 10 µM | > 10 µM | > 10 µM | > 10 µM | 0 | 0 | 0 | 0 | 0 |
| O=C(COP(=O)(O)O)[C@@H](O)[C@H](O)[C@H](O)COP(=O)(O)O [fosfructose] | 108% | 83% | 73.1% | 99.1% | 95.4% | 97.6% | 98.1% | 102% | 102% | 94.7% | 97.9% | 106% | 106% | 105% | 99.3% | 101% | 101% | 99.9% | 98.8% | 97.2% | 107% | 118% | 91.9% | 94.7% | 93.5% | > 10 µM | > 10 µM | > 10 µM | > 10 µM | > 10 µM | 0 | 0 | 0 | 0 | 0 |
| Cc1ccc(C)c(OCCCC(C)(C)C(=O)O)c1 [gemfibrozil] | 98.2% | 99.9% | 102% | 106% | 104% | 98.4% | 101% | 96.5% | 100% | 95.9% | 104% | 101% | 104% | 99.1% | 102% | 104% | 104% | 109% | 93.1% | 105% | 102% | 107% | 106% | 93.8% | 101% | > 10 µM | > 10 µM | > 10 µM | > 10 µM | > 10 µM | 0 | 0 | 0 | 0 | 0 |
| O=C(O)Cc1cccnc1C(=O)O [homoquinolinic-acid] | 104% | 93.8% | 95.3% | 94% | 93.9% | 105% | 106% | 102% | 103% | 94% | 97.4% | 100% | 100% | 99.6% | 99.7% | 92.7% | 89.2% | 97.4% | 95.6% | 111% | 99.5% | 104% | 101% | 96.3% | 105% | > 10 µM | > 10 µM | > 10 µM | > 10 µM | > 10 µM | 0 | 0 | 0 | 0 | 0 |
| C[C@]12CCC(=O)C=C1CC[C@@H]1[C@@H]2[C@@H](O)C[C@@]2(C)[C@H]1CC[C@]2(O)C(=O)COC(=O)CCC(=O)O [hydrocortisone-hemisuccinate] | 92.9% | 113% | 108% | 96.1% | 92.1% | 96.3% | 96.8% | 98.3% | 93.5% | 102% | 103% | 101% | 104% | 100% | 99.6% | 93.6% | 100% | 101% | 101% | 95.9% | 104% | 98.7% | 101% | 106% | 111% | > 10 µM | > 10 µM | > 10 µM | > 10 µM | > 10 µM | 0 | 0 | 0 | 0 | 0 |
